Test results taken from patent US20110294729A1, “Novel Insulin Analogues” (Novo Nordisk A/S, priority 2008, published 2011).

What was measured:
[1] = according to WO 90/01038; cited from earlier work
human IR-A = biological target: T1, human IR-A (Homo sapiens, UniProt P06213); experiment: Insulin receptor binding assay (SPA, solubilised receptor), hIR-A; details: hIR-A affinity relative to human insulin; analogue directly in yeast supernatant; SPA competition with [125I]A14Tyr-labelled insulin
T1 construct: solubilized human IR (holoreceptor) semipurified by wheat germ agglutinin purification; made in house; host or cells: baby hamster kidney (BHK) cells, stably transfected (pZem vector)
T1 sequence (P06213 28-746 isoform P06213-2 limits assumed): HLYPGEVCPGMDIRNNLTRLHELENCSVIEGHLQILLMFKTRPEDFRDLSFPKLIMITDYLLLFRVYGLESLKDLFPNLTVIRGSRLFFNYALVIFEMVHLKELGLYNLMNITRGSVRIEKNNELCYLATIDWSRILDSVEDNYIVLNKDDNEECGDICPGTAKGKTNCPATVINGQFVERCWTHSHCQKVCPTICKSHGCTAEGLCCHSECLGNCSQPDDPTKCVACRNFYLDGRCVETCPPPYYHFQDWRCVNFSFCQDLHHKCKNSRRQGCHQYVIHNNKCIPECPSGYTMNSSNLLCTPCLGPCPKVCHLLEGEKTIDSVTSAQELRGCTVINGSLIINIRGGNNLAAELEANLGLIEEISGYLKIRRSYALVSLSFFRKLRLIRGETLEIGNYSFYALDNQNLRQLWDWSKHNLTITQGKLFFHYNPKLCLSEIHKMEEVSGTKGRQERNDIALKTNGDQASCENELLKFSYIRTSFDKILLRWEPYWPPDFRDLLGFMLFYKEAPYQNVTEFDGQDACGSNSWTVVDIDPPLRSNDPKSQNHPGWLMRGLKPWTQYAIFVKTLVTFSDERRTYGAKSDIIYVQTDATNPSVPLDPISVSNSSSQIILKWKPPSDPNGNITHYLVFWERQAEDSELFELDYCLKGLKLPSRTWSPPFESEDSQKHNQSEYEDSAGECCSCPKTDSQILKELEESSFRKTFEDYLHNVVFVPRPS
T1 sequence (P06213 763-1382 partner limits assumed): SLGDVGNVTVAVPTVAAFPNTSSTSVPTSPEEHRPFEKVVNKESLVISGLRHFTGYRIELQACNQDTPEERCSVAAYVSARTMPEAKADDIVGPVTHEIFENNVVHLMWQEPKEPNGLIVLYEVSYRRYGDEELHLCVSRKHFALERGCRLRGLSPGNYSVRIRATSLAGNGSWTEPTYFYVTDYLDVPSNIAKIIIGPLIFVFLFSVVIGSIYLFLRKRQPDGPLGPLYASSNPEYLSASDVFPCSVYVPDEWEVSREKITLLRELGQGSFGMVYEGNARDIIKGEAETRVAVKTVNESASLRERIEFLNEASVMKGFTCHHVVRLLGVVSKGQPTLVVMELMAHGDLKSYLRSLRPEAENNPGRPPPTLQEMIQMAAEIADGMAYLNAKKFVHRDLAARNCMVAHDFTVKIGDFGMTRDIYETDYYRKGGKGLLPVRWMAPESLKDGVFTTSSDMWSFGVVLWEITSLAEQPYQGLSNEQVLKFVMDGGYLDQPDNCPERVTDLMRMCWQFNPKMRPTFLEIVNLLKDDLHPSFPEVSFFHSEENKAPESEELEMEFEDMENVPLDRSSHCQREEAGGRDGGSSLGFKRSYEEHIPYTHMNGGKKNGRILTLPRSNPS
Method: (§1) Competition binding experiments were performed in 96-well plates (polystyrene Optiplate-96, PerkinElmer) on an Eppendorf epMotion 5075 robot using solubilized human IR (holoreceptor) semipurified by wheat germ agglutinin purification from baby hamster kidney (BHK) cells, which were stably transfected with the pZem vector containing the human IR-A or IR-B insert.

human IR-B = biological target: T2, human IR-B (Homo sapiens, UniProt P06213); experiment: Insulin receptor binding assay (SPA, solubilised receptor), hIR-B
T2 construct: solubilized human IR (holoreceptor) semipurified by wheat germ agglutinin purification; made in house; host or cells: baby hamster kidney (BHK) cells, stably transfected (pZem vector)
T2 sequence (P06213 28-758 limits assumed): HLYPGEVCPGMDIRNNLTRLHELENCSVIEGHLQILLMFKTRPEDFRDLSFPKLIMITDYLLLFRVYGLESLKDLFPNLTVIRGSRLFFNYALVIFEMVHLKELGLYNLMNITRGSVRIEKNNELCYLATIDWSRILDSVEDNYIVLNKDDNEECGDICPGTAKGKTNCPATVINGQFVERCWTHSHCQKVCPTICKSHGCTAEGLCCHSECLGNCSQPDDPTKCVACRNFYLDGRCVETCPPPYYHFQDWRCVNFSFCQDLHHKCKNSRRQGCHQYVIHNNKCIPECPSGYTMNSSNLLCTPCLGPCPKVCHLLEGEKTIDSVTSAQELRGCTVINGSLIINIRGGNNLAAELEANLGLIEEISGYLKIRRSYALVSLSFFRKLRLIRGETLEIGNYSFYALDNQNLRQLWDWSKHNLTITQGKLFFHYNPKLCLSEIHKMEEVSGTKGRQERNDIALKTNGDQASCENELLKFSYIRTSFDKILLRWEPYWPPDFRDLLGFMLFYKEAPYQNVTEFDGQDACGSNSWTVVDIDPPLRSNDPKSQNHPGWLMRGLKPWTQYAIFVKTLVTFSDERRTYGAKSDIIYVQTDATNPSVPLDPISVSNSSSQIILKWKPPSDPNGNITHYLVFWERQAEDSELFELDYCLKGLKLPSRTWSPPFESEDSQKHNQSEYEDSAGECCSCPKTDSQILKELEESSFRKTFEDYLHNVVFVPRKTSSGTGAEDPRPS
T2 sequence (P06213 763-1382 partner limits assumed): as the sequence (P06213 763-1382 partner limits assumed) above
Method: as §1

[2] = tested on: insulin receptor A-isoform and B-isoform; details: cited from earlier work

## His^B25 human insulin
[1]
  biological activity: high biological activity

## [A8H, B25H, B27E, desB30] human insulin [Example 4]
Human IR-A
  hIR-A [% of HI]: 67 ± 3 % of HI
Human IR-B; Example 8 table, ratio of relative hIR-B affinity to relative hIR-A affinity
  Ratio B/A: 2.1
Human IR-B; hIR-B affinity relative to human insulin, analogue directly in yeast supernatant, SPA competition with [125I]A14Tyr-labelled insulin
  hIR-B [% of HI] (%): 140 ± 5 % of HI

## IGF-II
[2]; higher affinity for IR-A than for IR-B
  affinity for IR-A versus IR-B: 40-50 fold

## His^B25 human insulin B30 amide
[1]
  biological activity: high biological activity

## His^B25, Asp^B28, desB30 human insulin
[1]
  biological activity: high biological activity

## Human insulin
[2]; EMBO Journal 9 (1990), 2409-13
  affinity for insulin receptor A-isoform versus B-isoform (in words): slightly higher affinity for the insulin receptor A-isoform than for the B-isoform
